Reference: ChEMBL document CHEMBL4118174, “The discovery of VU0486846: steep SAR from a series of M1 PAMs based on a novel benzomorpholine core” (Bioorg Med Chem Lett, 2018)
Where a chain is given by its changes, count along the chain named.

Legend:
[1] = biological target: T1, Muscarinic acetylcholine receptor M1 (Homo sapiens) (UniProt P11229); assay: Positive allosteric modulation of human muscarinic acetylcholine M1 receptor expressed in CHO cells assessed as potentiation of acetylcholine-induced calcium mobilization relative to acetylcholine; assay type: functional, cell-based
T1 sequence (whole entry): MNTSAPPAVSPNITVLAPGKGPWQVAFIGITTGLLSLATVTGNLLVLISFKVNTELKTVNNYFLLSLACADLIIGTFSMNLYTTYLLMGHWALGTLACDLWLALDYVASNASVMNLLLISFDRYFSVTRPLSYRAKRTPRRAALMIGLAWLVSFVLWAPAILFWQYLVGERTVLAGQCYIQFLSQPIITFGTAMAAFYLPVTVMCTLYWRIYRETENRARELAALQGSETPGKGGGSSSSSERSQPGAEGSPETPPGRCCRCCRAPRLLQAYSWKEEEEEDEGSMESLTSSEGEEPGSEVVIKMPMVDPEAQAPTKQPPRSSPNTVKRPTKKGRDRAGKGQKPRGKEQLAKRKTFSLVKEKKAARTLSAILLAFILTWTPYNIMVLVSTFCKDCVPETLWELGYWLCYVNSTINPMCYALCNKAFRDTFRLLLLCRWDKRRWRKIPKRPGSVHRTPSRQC

[2] = Fraction unbound in plasma (unknown origin); assay type: ADME, cell-free
[3] = biological target: T2, Muscarinic acetylcholine receptor M1 (Homo sapiens, UniProt P11229); assay: Positive allosteric modulation of human muscarinic acetylcholine M1 receptor expressed in CHO cells assessed as potentiation of acetylcholine-induced calcium mobilization; assay type: functional, cell-based
T2 sequence (P11229 whole entry): T1 sequence (whole entry)

[4] = Brain to plasma permeability coefficient, Kp of compound in Sprague-Dawley rat at 0.20 to 0.25 mg/kg administered as iv cassette dose measured at 0.25 hrs post dose; assay type: ADME, organism-based; details: for Kp at 0.25 h: Sprague-Dawley, brain and plasma; for Kp: brain, 0.25 h
[5] = Fraction unbound in rat plasma; assay type: ADME, cell-free
[6] = Fraction unbound in human plasma; assay type: ADME, cell-free
[7] = biological target: T2, Muscarinic acetylcholine receptor M1; assay: Positive allosteric modulation of human muscarinic acetylcholine M1 receptor expressed in CHO-NFAT cells assessed as potentiation of acetylcholine-induced calcium mobilization after 4 hrs by CCF4-AM dye-based assay; assay type: functional, cell-based
[8] = Brain to plasma permeability coefficient, Kp of compound in mouse; assay type: ADME
[9] = biological target: T3, Muscarinic acetylcholine receptor M1 (Rattus norvegicus, UniProt P08482); assay: Positive allosteric modulation of rat muscarinic acetylcholine M1 receptor; assay type: functional
T3 sequence (P08482 whole entry): T1 sequence (whole entry) with A5V, T254S, P309S, R320K, A337G, I413V

[10] = biological target: T2, Muscarinic acetylcholine receptor M1; assay: Positive allosteric modulation of human muscarinic acetylcholine M1 receptor; assay type: functional
[11] = system: Rattus norvegicus; assay: Cognitive enhancing effect in po dosed rat by novel object recognition test; assay type: functional; details: read-out: MED

Row | Structure (SMILES) | %max [1] [%] | EC50 ([3]; read-out: EC50) [µM] | other results
1 | O=C(N[C@H]1CCCC[C@@H]1O)C1CN(Cc2ccc(-n3cccn3)cc2F)c2ccccc2O1 (mixture of isomers) | 88 | 1.6 | Fu [2]: < 0.001
2 | O=C(N[C@H]1CCOC[C@@H]1O)C1CN(Cc2ccc(-n3cccn3)cc2)c2ccccc2O1 (some centres not stated) | 91 | 0.19 | Kp at 0.25 h [4]: 0.08
3 | O=C(Nc1ncccc1O)C1CN(Cc2ccc(-n3cccn3)cc2)c2ccccc2O1 (configuration not stated) | 75 | 0.71 | Kp at 0.25 h [4]: 0.11; EC50 ([3]; read-out: pEC50 (converted)): 0.692 µM
4 | O=C(N[C@H]1CCCC[C@@H]1O)C1CN(Cc2ccc(-n3cccn3)cc2)c2c(F)cccc2O1 (some centres not stated) | 76 | 3.18 to 3.2 | Kp [4]: 0.3 to 0.4; fraction unbound [5]: < 0.01; fraction unbound [6]: < 0.01; EC50 ([3]; read-out: pEC50 (converted)): 3.09 µM
5 | O=C(NC1CCOCC1)C1CN(Cc2ccc(-n3cccn3)cc2)c2ccccc2O1 (configuration not stated) | 69 | 6.6 | Kp at 0.25 h [4]: 1
6 | Cc1ccc(Cc2cc3c(=O)n([C@H]4CCCC[C@@H]4O)cnc3c3ccccc23)cn1 [MK-7622] | – | – | EC50 [7]: < 0.1 µM
7 | NC1CCCCC1NC(=O)C1CN(Cc2ccc(-n3cccn3)cc2)c2ccccc2O1 (configuration not stated) | 62 | 2.3 | –
8 | O=C(N[C@H]1CCCCC1=O)C1CN(Cc2ccc(-n3cccn3)cc2)c2ccccc2O1 (some centres not stated) | 78 | 2.7 | –
9 | CC(O)(CNC(=O)C1CN(Cc2ccc(-n3cccn3)cc2)c2ccccc2O1)C1CC1 (configuration not stated) | 80 | 1.9 | –
10 | O=C(NCC(O)C(F)(F)F)C1CN(Cc2ccc(-n3cccn3)cc2)c2ccccc2O1 (configuration not stated) | 78 | 2.2 | –
11 | O=C(N[C@H]1CCCC[C@@H]1O)C1CN(Cc2ccc(-n3cccn3)cc2)c2ccc(F)cc2O1 (some centres not stated) | 80 | 2.2 | Kp [4]: 0.3 to 0.4; fraction unbound [5]: < 0.01; fraction unbound [6]: < 0.01
12 | O=C(N[C@H]1CCCC[C@@H]1O)C1CN(Cc2ccc(-n3cccn3)cc2)c2cc(F)ccc2O1 (some centres not stated) | 88 | 0.32 | Kp [4]: 0.3 to 0.4; fraction unbound [5]: < 0.01; fraction unbound [6]: < 0.01; EC50 ([3]; read-out: pEC50 (converted)): 0.309 µM
13 | O=C(N[C@H]1CCCC[C@@H]1O)C1CN(Cc2ccc(-n3cccn3)cc2)c2ccccc2O1 (mixture of isomers) | 77 | 0.92 | Kp [4]: 0.17; Fu [5]: > 0.11; fraction unbound [6]: ≥ 0.11; Kp [8]: 0.7
14 | CC(C)(O)CNC(=O)C1CN(Cc2ccc(-n3cccn3)cc2)c2ccccc2O1 (configuration not stated) | 60 | 6.4 | EC50 ([3]; read-out: pEC50 (converted)): 5.89 µM
15 | O=C(N[C@H]1CCCC[C@@H]1O)C1CN(Cc2ccc(-n3cccc3)cc2)c2ccccc2O1 (mixture of isomers) | 81 | 2.1 | Fu [2]: < 0.001
16 | O=C(N[C@H]1CCCC[C@@H]1O)[C@H]1CN(Cc2ccc(-n3cccn3)cc2)c2ccccc2O1 | – | – | EC50 [9]: 0.25 µM; EC50 [10]: 0.25 µM; minimal effective dose [11]: 3 mg/kg
17 | O=C(N[C@H]1CCCC[C@@H]1O)C1CN(Cc2ccc(-n3cccn3)cc2)c2cccc(F)c2O1 (some centres not stated) | 89 | 0.14 | Kp [4]: 0.3 to 0.4
18 | COc1cccnc1NC(=O)C1CN(Cc2ccc(-n3cccn3)cc2)c2ccccc2O1 (configuration not stated) | 80 | 1.7 | EC50 ([3]; read-out: pEC50 (converted)): 1.62 µM
19 | O=C(Nc1ncccc1F)C1CN(Cc2ccc(-n3cccn3)cc2)c2ccccc2O1 (configuration not stated) | 81 | 2.3 | –
20 | O=C(N[C@H]1CCCC[C@@H]1O)C1Cc2ccccc2N(Cc2ccc(-n3cccn3)cc2)C1 (mixture of isomers) | 75 | 1.4 | –
21 | O=C(N[C@H]1CCC[C@@H]1O)C1CN(Cc2ccc(-n3cccn3)cc2)c2ccccc2O1 (some centres not stated) | 77 | 1.2 | Kp at 0.25 h [4]: 0.09
22 | O=C(N[C@H]1CCCC[C@@H]1O)C1CN(Cc2ccc(-n3cccn3)cc2)c2cc(Cl)ccc2O1 (mixture of isomers) | 86 | 2.8 | Fu [2]: < 0.001
23 | O=C(NC1CCCCC1)C1CN(Cc2ccc(-n3cccn3)cc2)c2ccccc2O1 (configuration not stated) | 35 | > 10 | Kp at 0.25 h [4]: 1.1
24 | CC1(C(=O)N[C@H]2CCCC[C@@H]2O)CN(Cc2ccc(-n3cccn3)cc2)c2ccccc2O1 (mixture of isomers) | 61 | 7.3 | –

The next lines start with results.

Row | %max [1] [%] | EC50 ([3]; read-out: EC50) [µM] | Structure (SMILES) | other results
25 | 84 | 0.22 | Cn1cc(-c2ccc(CN3CC(C(=O)N[C@H]4CCCC[C@@H]4O)Oc4ccccc43)cn2)cn1 (some centres not stated) | –
26 | 94 | 0.5 | O=C(N[C@H]1CCCC[C@@H]1O)C1CN(Cc2ccc(-n3cccc3)nc2)c2ccccc2O1 (some centres not stated) | –
27 | 85 | 0.85 | Cc1ccc(CN2CC(C(=O)N[C@H]3CCCC[C@@H]3O)Oc3ccccc32)cn1 (some centres not stated) | EC50 ([3]; read-out: pEC50 (converted)): 0.813 µM
28 | 87 | 0.29 | O=C(N[C@H]1CCCC[C@@H]1O)C1CN(Cc2ccc(-n3ccnc3)nc2)c2ccccc2O1 (some centres not stated) | –
29 | 94 | 1.3 | Cn1nccc1-c1ccc(CN2CC(C(=O)N[C@H]3CCCC[C@@H]3O)Oc3ccccc32)cn1 (some centres not stated) | –
30 | 92 | 0.78 | O=C(N[C@H]1CCCC[C@@H]1O)C1CN(Cc2ccc(-n3cccn3)nc2)c2ccccc2O1 (mixture of isomers) | Fu [2]: < 0.001; EC50 ([3]; read-out: pEC50 (converted)): 0.708 µM
31 | 89 | 3.8 | CN(C)c1ccc(CN2CC(C(=O)N[C@H]3CCCC[C@@H]3O)Oc3ccccc32)cn1 (some centres not stated) | –
32 | 73 | 7.6 | O=C(N[C@H]1CCCC[C@@H]1O)C1CN(Cc2ccc(Cl)nc2)c2ccccc2O1 (some centres not stated) | EC50 ([3]; read-out: pEC50 (converted)): 7.08 µM
33 | 84 | 3.7 | O=C(N[C@H]1CCCC[C@@H]1O)C1CN(Cc2ccc(C(F)(F)F)nc2)c2ccccc2O1 (some centres not stated) | –
34 | 90 | 2.5 | O=C(N[C@H]1CCCC[C@@H]1O)C1CN(Cc2ccc(C3CC3)nc2)c2ccccc2O1 (some centres not stated) | EC50 ([3]; read-out: pEC50 (converted)): 2.24 µM
35 | 91 | 1.2 | O=C(N[C@H]1CCCC[C@@H]1O)C1CN(Cc2ccc(Br)nc2)c2ccccc2O1 (some centres not stated) | EC50 ([3]; read-out: pEC50 (converted)): 1.07 µM
36 | 91 | 0.67 | Cc1ccn(-c2ccc(CN3CC(C(=O)N[C@H]4CCCC[C@@H]4O)Oc4ccccc43)cn2)n1 (some centres not stated) | –
37 | 89 | 0.7 | C=Cc1ccc(CN2CC(C(=O)N[C@H]3CCCC[C@@H]3O)Oc3ccccc32)cn1 (some centres not stated) | –
